Consider 17 compounds from US8901111B2, “Aryl-substituted heterocyclic urea modulators of fatty acid amide hydrolase” (Janssen Pharmaceutica NV, priority 2009, dated 2014).

As usually defined, the IC50 is the midpoint of a concentration-inhibition curve.

One experiment has as its target T1, rat FAAH (Rattus norvegicus, UniProt P97612).
T1 construct: expressed in transfected cells; crude homogenate
T1 sequence (P97612 1-579): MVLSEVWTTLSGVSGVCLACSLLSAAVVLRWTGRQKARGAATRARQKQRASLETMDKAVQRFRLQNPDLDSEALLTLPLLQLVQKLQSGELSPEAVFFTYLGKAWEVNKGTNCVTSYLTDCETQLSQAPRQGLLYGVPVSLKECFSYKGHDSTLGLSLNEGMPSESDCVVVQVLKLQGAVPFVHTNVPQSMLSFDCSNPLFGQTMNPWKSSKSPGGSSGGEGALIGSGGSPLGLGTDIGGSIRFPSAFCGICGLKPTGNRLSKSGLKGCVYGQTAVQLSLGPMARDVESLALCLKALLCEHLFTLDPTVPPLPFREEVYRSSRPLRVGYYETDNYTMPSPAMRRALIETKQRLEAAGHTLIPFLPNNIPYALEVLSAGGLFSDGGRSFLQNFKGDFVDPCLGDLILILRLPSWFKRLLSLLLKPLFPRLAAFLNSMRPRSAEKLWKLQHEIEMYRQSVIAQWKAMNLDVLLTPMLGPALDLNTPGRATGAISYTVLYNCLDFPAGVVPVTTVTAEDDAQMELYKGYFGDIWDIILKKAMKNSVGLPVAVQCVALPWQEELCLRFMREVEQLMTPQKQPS
Kind of experiment: Assay Method 2: FAAH assay, 3H-anandamide hydrolysis in homogenate of cells transfected with rat FAAH. It is filed as biochemical. The settings on record: cell homogenate, 3H-AEA 80 nM, 1 h at rt, average of results. On the procedure:
A. Transfection of Cells with Rat FAAH
(§1) A 10-cm tissue culture dish with a confluent monolayer of SK-N-MC cells was split 2 days (d) prior to transfection. Using sterile technique, the media was removed and the cells were detached from the dish by the addition of trypsin. One fifth of the cells were then placed onto a new 10-cm dish. Cells were grown in a 37° C. incubator with 5% CO2 in Minimal Essential Media Eagle with 10% Fetal Bovine Serum. After 2 d, cells were approximately 80% confluent. These cells were removed from the dish with trypsin and pelleted in a clinical centrifuge. The pellet was re-suspended in 400 μL complete media and transferred to an electroporation cuvette with a 0.4 cm gap between the electrodes. Supercoiled rat FAAH cDNA (1 μg) was added to the cells and mixed. The voltage for the electroporation was set at 0.25 kV, and the capacitance was set at 960 μF. After electroporation, the cells were diluted into complete media (10 mL) and plated onto four 10-cm dishes. Because of the variability in the efficiency of electroporation, four different concentrations of cells were plated. The ratios used were 1:20, 1:10, and 1:5, with the remainder of the cells being added to the fourth dish. The cells were allowed to recover for 24 h before adding the selection media (complete media with 600 μg/mL G418). After 10 d, dishes were analyzed for surviving colonies of cells. Dishes with well-isolated colonies were used. Cells from individual colonies were isolated and tested.
(§2) T84 frozen cell pellets or transfected SK-N-MC cells (contents of 1×15 cm culture dishes) were homogenized in 50 mL of FAAH assay buffer (125 mM Tris, 1 mM EDTA, 0.2% Glycerol, 0.02% Triton X-100, 0.4 mM Hepes, pH 9). The assay mixture consisted of 50 μL of the cell homogenate, 10 μL of the test compound, and 40 μL of anandamide [1-^3H-ethanolamine] (^3H-AEA, Perkin-Elmer, 10.3 Ci/mmol), which was added last, for a final tracer concentration of 80 nM. The reaction mixture was incubated at rt for 1 h. During the incubation, 96-well Multiscreen filter plates (catalog number MAFCNOB50; Millipore, Bedford, Mass., USA) were loaded with 25 μL of activated charcoal (Multiscreen column loader, catalog number MACL09625, Millipore) and washed once with 100 μL of MeOH. Also during the incubation, 96-well DYNEX MicroLite plates (catalog number NL510410) were loaded with 100 μL of MicroScint40 (catalog number 6013641, Packard Bioscience, Meriden, Conn., USA). After the 1 h incubation, 60 μL of the reaction mixture were transferred to the charcoal plates, which were then assembled on top of the DYNEX plates using Centrifuge Alignment Frames (catalog number MACF09604, Millipore). The unbound labeled ethanolamine was centrifuged through to the bottom plate (5 min at 2000 rpm), which was preloaded with the scintillant, as described above. The plates were sealed and left at rt for 1 h before counting on a Hewlett Packard TopCount.
(§3) Results for compounds tested in these assays are summarized in Table 1, as an average of results obtained. Compounds were tested in the free base or trifluoroacetic acid salt form. Compounds tested in the trifluoroacetic acid salt form are indicated as such by a “*” designation after the example number. Where activity is shown as greater than (>) a particular value, the value is the solubility limit of the compound in the assay medium or the highest concentration tested in the assay.

Another experiment deals with T2, FAAH (Homo sapiens, UniProt O00519).
T2 sequence (O00519 1-579): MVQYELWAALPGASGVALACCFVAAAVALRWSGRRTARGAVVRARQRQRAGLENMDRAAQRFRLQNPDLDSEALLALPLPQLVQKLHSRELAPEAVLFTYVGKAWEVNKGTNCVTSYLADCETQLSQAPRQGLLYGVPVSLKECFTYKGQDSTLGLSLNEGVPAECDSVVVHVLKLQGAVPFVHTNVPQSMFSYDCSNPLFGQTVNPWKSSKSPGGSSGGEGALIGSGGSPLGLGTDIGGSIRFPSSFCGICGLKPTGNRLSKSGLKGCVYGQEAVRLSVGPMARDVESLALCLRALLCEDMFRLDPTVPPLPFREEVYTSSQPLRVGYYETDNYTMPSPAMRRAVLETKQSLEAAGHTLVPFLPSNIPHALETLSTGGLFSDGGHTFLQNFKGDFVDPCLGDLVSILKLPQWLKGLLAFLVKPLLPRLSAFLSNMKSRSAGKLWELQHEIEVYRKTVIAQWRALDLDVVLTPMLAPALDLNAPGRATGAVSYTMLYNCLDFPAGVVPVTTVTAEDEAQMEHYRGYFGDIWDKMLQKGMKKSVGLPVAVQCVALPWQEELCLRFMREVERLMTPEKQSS
Kind of experiment: Assay Method 1: FAAH assay, 3H-anandamide hydrolysis in homogenate of cells transfected with human FAAH. The experiment is classed as biochemical. Also noted: expressed in transfected cells; crude homogenate (T84 cell pellets named as alternative). The settings on record: cell homogenate, 3H-AEA 80 nM, 1 h at rt, average of results. The procedure:
A. Transfection of Cells with Human FAAH
as §1, with “Supercoiled human” for “Supercoiled rat”, “[…]” for “960 μF.”
as §2, §3

Counter-ions that a name gives are not always drawn.

With `O=C(Nc1cnccc1Cl)N1CCC(CCOc2cccc(Oc3ccc(Cl)cc3)c2)C1` (stereo not shown) [Example 64, 3-{2-[3-(4-Chloro-phenoxy)-phenoxy]-ethyl}-pyrrolidine-1-carboxylic acid (4-chloro-pyridin-3-yl)-amide], the IC50 against rat FAAH was 73 nM; at FAAH, 63 nM.

Turning to `O=C(Nc1cccnc1)N1CC(COc2cccc(C(F)(F)F)c2)C1` [Example 8, 3-(3-Trifluoromethyl-phenoxymethyl)-azetidine-1-carboxylic acid pyridin-3-ylamide, trifluoroacetate salt], the IC50 came to 620 nM on rat FAAH and 2400 nM against FAAH.

Regarding `O=C(Nc1cnccc1Cl)N1CCC(CCc2ccc3c(c2)OC(F)(F)O3)C1` (stereo not shown) [Example 78, 3-[2-(2,2-Difluoro-benzo[1,3]dioxol-5-yl)-ethyl]-pyrrolidine-1-carboxylic acid (4-chloro-pyridin-3-yl)-amide], the figures for the IC50 against rat FAAH and at FAAH were 320 nM and 230 nM, respectively.

In the case of `O=C(Nc1cnccc1Cl)N1CC(CCOc2cccc(Oc3ccc(Cl)cn3)c2)C1` [Example 48, 3-{2-[3-(5-Chloro-pyridin-2-yloxy)-phenoxy]-ethyl}-azetidine-1-carboxylic acid (4-chloro-pyridin-3-yl)-amide], the half-maximal inhibitory concentration (IC50) against rat FAAH is 5 nM; at FAAH, 1 nM.

For the compound `C#Cc1cccc(OCCC2CN(C(=O)Nc3cccnc3)C2)c1` [Example 37, 3-[2-(3-Ethynyl-phenoxy)-ethyl]-azetidine-1-carboxylic acid pyridin-3-ylamide, trifluoroacetate salt], the IC50 against rat FAAH was 820 nM; against FAAH it was 140 nM.

Turning to `O=C(Nc1cnccc1Cl)N1CC(CCOCc2ccc(Cl)c(Cl)c2)C1` [Example 67, 3-[2-(3,4-Dichloro-benzyloxy)-ethyl]-azetidine-1-carboxylic acid (4-chloro-pyridin-3-yl)-amide], the IC50 came out at 84 nM against rat FAAH and 39 nM on FAAH.

`O=C(Nc1cccnc1)N1CC(COc2ccccc2)C1` [Example 2, 3-Phenoxymethyl-azetidine-1-carboxylic acid pyridin-3-ylamide, trifluoroacetate salt]: the IC50 against rat FAAH and against FAAH was greater than 10000 nM in each case.

For `O=C(Nc1cnc2ccccn12)N1CC(CCOc2cccc(Oc3ccc(Cl)cc3)c2)C1` [Example 42, 3-{2-[3-(4-Chloro-phenoxy)-phenoxy]-ethyl}-azetidine-1-carboxylic acid imidazo[1,2-a]pyridin-3-ylamide], the IC50 turned out to be 24 nM on rat FAAH and 30 nM on FAAH.

For `CCCCOc1cccc(OCCC2CN(C(=O)Nc3cccnc3)C2)c1` [Example 33, 3-[2-(3-Butoxy-phenoxy)-ethyl]-azetidine-1-carboxylic acid pyridin-3-ylamide], the half-inhibitory concentration (IC50) at rat FAAH was found to be 2000 nM; on FAAH, 34 nM.

On to `O=C(Nc1cccnc1)N1CC(CCOc2cccc(C(F)(F)F)c2)C1` [Example 46, 3-[2-(3-Trifluoromethyl-phenoxy)-ethyl]-azetidine-1-carboxylic acid pyridin-3-ylamide], for which the concentration for half-maximal inhibition (IC50) is 615 nM against rat FAAH and 1600 nM against FAAH.

`O=C(Nc1cccnc1)N1CC(COc2ccc3c(c2)OCO3)C1` [Example 7, 3-(Benzo[1,3]dioxol-5-yloxymethyl)-azetidine-1-carboxylic acid pyridin-3-ylamide]: the IC50 against rat FAAH and against FAAH was greater than 10000 nM each time.

In the case of `O=C(Nc1cccnc1)N1CC(CCOc2ccc3ccccc3c2)C1` [Example 35, 3-[2-(Naphthalen-2-yloxy)-ethyl]-azetidine-1-carboxylic acid pyridin-3-ylamide, trifluoroacetate salt], the 50% inhibitory concentration (IC50) at rat FAAH turned out to be 350 nM; against FAAH, 160 nM.

As for `O=C(Nc1noc2ccccc12)N1CCC(Cc2ccc3c(c2)OC(F)(F)O3)C1` (stereo not shown) [Example 72, 3-(2,2-Difluoro-benzo[1,3]dioxol-5-ylmethyl)-pyrrolidine-1-carboxylic acid benzo[d]isoxazol-3-ylamide], the IC50 is 770 nM on rat FAAH and greater than 10000 nM at FAAH.

Consider `O=C(Nc1cnccc1Cl)N1CCC(CCOc2cccc(OC(F)(F)F)c2)C1` (stereo not shown) [Example 61, 3-[2-(3-Trifluoromethoxy-phenoxy)-ethyl]-pyrrolidine-1-carboxylic acid (4-chloro-pyridin-3-yl)-amide], for which the IC50 on rat FAAH and at FAAH was 1600 nM throughout.

As to `O=C(Nc1cccnc1)N1CC(COc2ccc(C(F)(F)F)c(Cl)c2)C1` [Example 10, 3-(3-Chloro-4-trifluoromethyl-phenoxymethyl)-azetidine-1-carboxylic acid pyridin-3-ylamide], the figures for the IC50 against rat FAAH and at FAAH were 300 nM and 1400 nM, respectively.

On to `O=C(Nc1cccnc1)N1CC(COc2cccc(Oc3ccccc3)c2)C1` [Example 17, 3-(3-Phenoxy-phenoxymethyl)-azetidine-1-carboxylic acid pyridin-3-ylamide], for which the results for the half-inhibitory concentration (IC50) on rat FAAH and on FAAH were 340 nM and 170 nM, respectively.

Regarding `O=C(Nc1cccnc1)N1CC(COc2ccc3ccccc3n2)C1` [Example 9, 3-(Quinolin-2-yloxymethyl)-azetidine-1-carboxylic acid pyridin-3-ylamide], the IC50 against rat FAAH and against FAAH was 1300 nM each time.
